US8658791B2, “2-substituted-6-amino-5-alkyl, alkenyl or alkynyl-4-pyrimidinecarboxylic acids and 6-substituted-4-amino-3-alkyl, alkenyl or alkynyl picolinic acids and their use as herbicides” (Dow AgroSciences, LLC, priority 2007, dated 2014)

Key:
[1] = test system: lambsquarter (Chenopodium album); experiment: General postemergence herbicidal activity, CHEAL; assay type: in vivo; conditions: Chenopodium album, post-emergence, 336 h, postemergence spray, visual score after 14 days, 0 = no injury, 100 = complete kill, read-out: Post-emergent Weed Control CHEAL; for pest or weed control at 280 g/ha: 280 g ai/ha; for pest or weed control at 140 g/ha: 140 g ai/ha
Outline: (§1)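 Test species were grown 7-21 days in potting mix under greenhouse conditions, then treated postemergence by track sprayer delivering 187 L/ha. Rates comprised the high rate and twofold dilutions down to 1/16X. After 14 days with sub-irrigation, damage is scored from 0 (no injury) to 100 (complete kill).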

[2] = test system: velvetleaf (Abutilon theophrasti); experiment: General postemergence herbicidal activity, ABUTH; assay type: in vivo; conditions: Abutilon theophrasti, post-emergence, 336 h, postemergence spray, visual score after 14 days, 0 = no injury, 100 = complete kill, read-out: Post-emergent Weed Control ABUTH; for pest or weed control at 280 g/ha: 280 g ai/ha; for pest or weed control at 140 g/ha: 140 g ai/ha
Outline: as §1

[3] = test system: wild poinsettia (Euphorbia heterophylla); experiment: General postemergence herbicidal activity, EPHHL; assay type: in vivo; conditions: Euphorbia heterophylla, post-emergence, 336 h, postemergence spray, visual score after 14 days, 0 = no injury, 100 = complete kill, read-out: Post-emergent Weed Control EPHHL; for pest or weed control at 280 g/ha: 280 g ai/ha; for pest or weed control at 140 g/ha: 140 g ai/ha
Outline: as §1

[4] = test system: barnyardgrass (Echinochloa crus-galli); experiment: General postemergence herbicidal activity, ECHCG; assay type: in vivo; conditions: Echinochloa crus-galli, post-emergence, 336 h, postemergence spray, visual score after 14 days, 0 = no injury, 100 = complete kill, read-out: Post-emergent Weed Control ECHCG; for pest or weed control at 280 g/ha: 280 g ai/ha; for pest or weed control at 140 g/ha: 140 g ai/ha
Outline: as §1

rice (Oryza sativa) [5] = experiment: General postemergence herbicidal activity, ORYSA; assay type: in vivo; conditions: Oryza sativa, post-emergence, 336 h, postemergence spray, visual score after 14 days, 0 = no injury, 100 = complete kill, read-out: Post-emergent Weed Control ORYSA; for plant injury at 280 g/ha: 280 g ai/ha; for plant injury at 140 g/ha: 140 g ai/ha
Outline: as §1

[6] = test system: lambsquarter (Chenopodium album); experiment: General preemergence herbicidal activity, CHEAL; assay type: in vivo; conditions: applied to soil surface, visual score after 20-22 days, 0 = no injury, 100 = complete kill or no emergence, read-out: Pre-emergent Weed Control CHEAL; for pest or weed control at 140 g/ha: 140 g ai/ha
Description: (§2) Seeds of the desired test plant species were planted in a soil matrix prepared by mixing a loam soil (43 percent silt, 19 percent clay, and 38 percent sand, with a pH of about 8.1 and an organic matter content of about 1.5 percent) and sand in a 70 to 30 ratio. The soil matrix was contained in plastic pots with a surface area of 127 square centimeters. When required to ensure good germination and healthy plants, a fungicide treatment and/or other chemical or physical treatment was applied. A weighed amount, determined by the highest rate to be tested, of each test compound was placed in a 25 mL glass vial and was dissolved in 6 mL of a 97:3 v/v (volume/volume) mixture of acetone and DMSO to obtain concentrated stock solutions. […] The stock solutions obtained were diluted with 18 mL of a 0.1% v/v aqueous solution of Tween® 20 surfactant to obtain spray solutions containing the highest application rate. Additional application rates were obtained by serial dilution of 12 mL of the high rate solution into a solution containing 3 mL of 97:3 v/v mixture of acetone and DMSO and 9 mL of the 0.1% v/v aqueous solution of Tween® 20 surfactant to obtain 1/2X, 1/4X, 1/8X and 1/16X rates of the high rate. Compound requirements are based upon a 12 mL application volume at a rate of 187 L/ha. Formulated compounds were applied to the soil surface with an overhead Mandel track sprayer equipped with a […] nozzles calibrated to deliver 187 L/ha over an application area of 0.503 square meters at a spray height of 18 inches (43 cm) above the soil surface. Control pots were sprayed in the same manner with the solvent blank. The treated pots and control pots were placed in a greenhouse maintained with an approximate 15 hour photoperiod and temperatures of about 23-29° C. during the day and 22-28° C. during the night. Nutrients and water were added on a regular basis and supplemental lighting was provided with overhead metal halide 1000-Watt lamps as necessary. The water was added by top-irrigation. After 20-22 days, the condition of the test plants that germinated and grew as compared with that of the untreated plants that emerged and grew was determined visually and scored on a scale of 0 to 100 percent where 0 corresponds to no injury and 100 corresponds to complete kill or no emergence.

[7] = test system: velvetleaf (Abutilon theophrasti); experiment: General preemergence herbicidal activity, ABUTH; assay type: in vivo; conditions: applied to soil surface, visual score after 20-22 days, 0 = no injury, 100 = complete kill or no emergence, read-out: Pre-emergent Weed Control ABUTH; for pest or weed control at 140 g/ha: 140 g ai/ha
Description: as §2

[8] = test system: wild poinsettia (Euphorbia heterophylla); experiment: General preemergence herbicidal activity, EPHHL; assay type: in vivo; conditions: applied to soil surface, visual score after 20-22 days, 0 = no injury, 100 = complete kill or no emergence, read-out: Pre-emergent Weed Control EPHHL; for pest or weed control at 140 g/ha: 140 g ai/ha
Description: as §2

[9] = test system: barnyardgrass (Echinochloa crus-galli); experiment: General preemergence herbicidal activity, ECHCG; assay type: in vivo; conditions: applied to soil surface, visual score after 20-22 days, 0 = no injury, 100 = complete kill or no emergence, read-out: Pre-emergent Weed Control ECHCG; for pest or weed control at 140 g/ha: 140 g ai/ha
Description: as §2

rice (Oryza sativa) [10] = experiment: General preemergence herbicidal activity, ORYSA; assay type: in vivo; conditions: applied to soil surface, visual score after 20-22 days, 0 = no injury, 100 = complete kill or no emergence, read-out: Pre-emergent Weed Control ORYSA; for plant injury at 140 g/ha: 140 g ai/ha
Description: as §2

Compound	pest or weed control at 280 g/ha [1] [%]	pest or weed control at 280 g/ha [2] [%]	pest or weed control at 280 g/ha [3] [%]	pest or weed control at 280 g/ha [4] [%]	plant injury at 280 g/ha (rice (Oryza sativa) [5]) [%]	pest or weed control at 140 g/ha [6] [%]	pest or weed control at 140 g/ha [7] [%]	pest or weed control at 140 g/ha [8] [%]	pest or weed control at 140 g/ha [9] [%]	plant injury at 140 g/ha (rice (Oryza sativa) [10]) [%]	melting point [°C]	pest or weed control at 140 g/ha [1] [%]	pest or weed control at 140 g/ha [2] [%]	pest or weed control at 140 g/ha [3] [%]	pest or weed control at 140 g/ha [4] [%]	plant injury at 140 g/ha (rice (Oryza sativa) [5]) [%]	also measured
COC(=O)c1nc(-c2ccc(Cl)c(OC)c2F)nc(N)c1C [Compound 2, 6-Amino-2-(4-chloro-2-fluoro-3-methoxyphenyl)-5-methylpyrimidine-4-carboxylic acid methyl ester]	100	95	100	95	0	80	40	95	0	15	168 to 170	–	–	–	–	–	–
C=Cc1c(N)nc(C2CC2)nc1C(=O)OCC [Compound 4, 6-Amino-2-cyclopropyl-5-vinylpyrimidine-4-carboxylic acid ethyl ester]	–	–	–	–	–	–	–	–	–	–	155 to 157	100	100	100	0	0	pest or weed control at 280 g/ha ([6]; 280 g ai/ha): 100%; pest or weed control at 280 g/ha ([7]; 280 g ai/ha): 90%; pest or weed control at 280 g/ha ([8]; 280 g ai/ha): 100%; pest or weed control at 280 g/ha ([9]; 280 g ai/ha): 50%; plant injury at 280 g/ha (rice (Oryza sativa) [10]; 280 g ai/ha): 0%
C=Cc1c(N)nc(-c2ccc(Cl)cc2F)nc1C(=O)OC [Compound 5, 6-Amino-2-(4-chloro-2-fluorophenyl)-5-vinylpyrimidine-4-carboxylic acid methyl ester]	–	–	–	–	–	95	100	90	0	10	137 to 139	100	100	100	80	5	–
C=Cc1c(N)nc(-c2ccc(Cl)c(C(C)F)c2F)nc1C(=O)OC (stereo not drawn) [Compound 14, 6-amino-2-(4-chloro-2-fluoro-3-(1-fluoroethyl)phenyl)-5-vinylpyrimidine-4-carboxylic acid methyl ester]	–	–	–	–	–	100	100	100	95	95	144 to 147	–	–	–	–	–	pest or weed control at 70 g/ha ([1]; 70 g ai/ha): 100%; pest or weed control at 70 g/ha ([2]; 70 g ai/ha): 100%; pest or weed control at 70 g/ha ([3]; 70 g ai/ha): 100%; pest or weed control at 70 g/ha ([4]; 70 g ai/ha): 100%; plant injury at 70 g/ha (rice (Oryza sativa) [5]; 70 g ai/ha): 10%
C=Cc1c(N)cc(-c2ccc(Cl)c(OC)c2F)nc1C(=O)OC [Compound 28, 4-Amino-6-(4-chloro-2-fluoro-3-methoxyphenyl)-3-vinylpyridine-2-carboxylic acid methyl ester]	75	85	90	75	0	95	95	100	70	20	118 to 121	–	–	–	–	–	–
COc1c(Cl)ccc(-c2nc(N)c(C)c(C(=O)O)n2)c1F [Compound 53, 6-amino-2-(4-chloro-2-fluoro-3-methoxyphenyl)-5-methylpyrimidine-4-carboxylic acid]	–	–	–	–	–	100	100	100	80	0	201 to 203	100	90	100	90	0	–
